Eight molecules from patent US20190178896A1, “MARKER FOR THE CLASSIFICATION, DIAGNOSIS AND TREATMENT OF SCOLIOSIS” (Chu Sainte-Justine, priority 2013, published 2019) can be followed below.

Counter-ions that a name gives are not always drawn. Like-named read-outs stand apart in the source and are kept apart here.

The subject of assay [1] is osteoblasts from control and AIS patients. The assay can be described thus: cells. Here is the method:
The targeted endogenous receptors are shown in parentheses. The impedance represented in y-axis as dziec was measured by the Cellkey™ system every 2 sec. Data are representative of impedance signature in osteoblasts from 12 individuals tested three times in duplicate for each group;
A total of ten compounds were tested and the representative refraction index curves generated by each of these compounds in control and AIS osteoblasts are illustrated in FIGS. 10A-10J).

For assay [2], the system named is PBMCs from patients with IS. The assay can be described thus: Effect of rOPN on cellular response to Gi stimulation (somatostatin) in PBMCs, CDS-based system. It counts as cell-based, human. The settings on record: 0.5 μg/mL rOPN 18 h, 10 μM somatostatin. How it is done: Cells were serum-starved for 18 h in the presence or absence of 0.5 μg/mL rOPN and then stimulated with 10 μM of somatostatin to initiate Gi-mediated cellular response. Data in the graph were generated from maximum-minimum impedance and correspond to the average of response in duplicate;
3. Functional Assay: Day 1: 1. Place PBMCs aliquot from liquid nitrogen in water bath at 37° C. for a minute or until defrosted. 2. Transfer the cell suspension to a 50 mL tube with a sterile pipette. 3. Add 15 mL of Complete media and spin the cells down at 200×g for 5 minutes at room temperature. 4. Remove the supernatant by aspiration. 5. Gently suspend cell pellet in 1 mL of PHA media. 6. Complete the volume to 20 mL with the same media. 7. Cap the tube loosely to allow air to enter. 8. Leave the tube overnight at 37 ° C. in a CO2 incubator to allow quiescent lymphocytes to transform into rapidly-proliferating lymphoblasts.
Day 2: 1. Take the tube out of the incubator, screw the caps completely and spin the cells down at 200×g for 5 min at room temperature. 2. Remove the supernatant by aspiration. 3. Gently suspend cell pellet in 1 mL of complete media. 4. Complete the volume to 20 mL with the same media. 5. Cap the tube loosely to allow air to enter. 6. Leave the tube overnight at 37° C. in a CO2 incubator to expand cell numbers.
Day 3: 1. Take the tube out of the incubator, screw the caps completely and spin the cells down at 200×g for […] at room temperature. 2. Remove the supernatant by aspiration. 3. Wash cells twice with 10 mL of RPMI-1640 (media developed for growing human normal and neoplastic leukocytes (peripheral blood lymphocytes)) by centrifugation at 200×g for […] at room temperature. 4. Gently re-suspend the cell pellet in 600 μL of RPMI-1640. 5. Measure the cell concentration and viability, using an automated cell counter and viability analyzer. 6. Add appropriate volume of RPMI-1640 to adjust to a cell concentration of 1.5×10^5 cell/20 μL. 7. Treat cells with recombinant OPN (rOPN) or vehicle (PBS). 7.1 Transfer 100 μL of cell suspension to two sterile 1.5 ml eppendorf tubes. […]

The next assay deals with Gs and Gq proteins. The assay can be described thus: Gs and Gq siRNA knockdown effect on impedance signature of GiPCR agonists in osteoblasts. It counts as cell-based, human. How it is done: Osteoblasts from control subjects and AIS patients of each functional group were transfected with scramble siRNA, Gs siRNA, or Gq siRNA. Efficiency of siRNA in control and AIS groups was verified with qPCR and Western blot analyses 48 hours after transfection, and response to stimulation with GiPCR agonist of cluster I, cluster II, cluster III and cluster IV was evaluated by challenging cells with 10 μM of (FIG. 14A-14D) LPA, (FIG. 14EA-14H) CB65, (FIG. 14I-14L) Somatostatin and (FIG. 14M-14P) Apelin-17, respectively. […] The impedance represented in y-axis as dziec was measured every 2 sec. Data are representative of impedance signatures generated by CellKey™ system in osteoblasts from 12 individuals tested three times in duplicate for each group.;
All Gi1, Gi2, Gi3, Gs and scrambled siRNA were obtained from Ambion (Ambion USA). The sequences used for gene silencing are shown in supplemental Table 3. Osteoblasts from control subjects and AIS patients were transiently transfected in serum-free medium, using Lipofectamine RNAiMAX reagent (Invitrogen) according to the manufacturer's instructions and functional experiments were performed 48 h post transfection. The gene knockdown was evaluated by quantitative real-time PCR (qPCR).
The possibility that the disparity in the shape of impedance among AIS groups in response to GiPCR activation implicates a component of Gs or Gq proteins-dependent response was then […] examined For this purpose, the small interference RNA (siRNA) approach was used to knockdown Gs or Gq proteins prior to stimulate cells.

Setting [3] is: Homo sapiens, Osteoblast, read-out: Control EC50 (nM).
Where [4] appears, read: Homo sapiens, Osteoblast, read-out: FG1 EC50 (nM).
[5] abbreviates: Homo sapiens, Osteoblast, read-out: FG2 EC50 (nM).
[6] abbreviates: Homo sapiens, Osteoblast, read-out: FG3 EC50 (nM).

As usually defined, the EC50 is the concentration giving half of the maximal effect. In the case of `c1ccc(N2CCN(CCCOc3ccc4c(c3)OCO4)CC2)cc1` [BP554, 1-[3-(3,4-Methylenedioxyphenoxy)propyl]-4-phenyl-piperazine maleate], the 50% effective concentration (EC50) is 22.3 ± 1.7 nM in assay [1] (setting [3]), 22.3 ± 2.3 nM in assay [1] (setting [4]), 22.5 ± 1.6 nM in assay [1] (setting [5]) and 22.4 ± 1.5 nM in assay [1] (setting [6]).
Turning to “OPN: recombinant human osteopontin (R & D Systems)”, the “reduction of response to Gi stimulation following rOPN treatment” value in assay [2] (patient 370) is reported as “less than 50%”; in assay [2] (patients 345 and 382), “more than 50%”. Moreover, in assay [2] (patients 353 and 371), the “OPN effect on the response to Gi stimulation” value is given as “increased the response”.
Regarding `CSCC[C@H](NC(=O)[C@@H]1CCCN1C(=O)CNC(=O)[C@H](CCCCN)NC(=O)[C@H](Cc1c[nH]cn1)NC(=O)[C@H](CO)NC(=O)[C@H](CC(C)C)NC(=O)[C@H](CCCNC(=N)N)NC(=O)[C@@H]1CCCN1C(=O)[C@H](CCCNC(=N)N)NC(=O)[C@H](CCC(N)=O)NC(=O)[C@H](CCCNC(=N)N)NC(=O)[C@H](CCCNC(=N)N)NC(=O)[C@H](Cc1ccccc1)NC(=O)[C@@H](N)CCCCN)C(=O)N1CCC[C@H]1C(=O)N[C@@H](Cc1ccccc1)C(=O)O` [Apelin-17], the “Gs coupling (permissive) of agonist/GiPCR” value in the assay on Gs and Gq proteins (FG1) is “Apelin-17/Gs−”; in the assay on Gs and Gq proteins (FG2), “Apelin-17/Gs−”; with Gs and Gq proteins (FG3) it was “Apelin-17/Gs−”.
`O=C(NC1CCCCC1)c1cn(CCN2CCOCC2)c2cc(Cl)ccc2c1=O` [CB65, N-Cyclohexyl-7-chloro-1-[2-(4-morpholinyl)ethyl]quinolin-4(1H)-one-3-carboxamide]: the EC50 in assay [1] (setting [3]) was 13.9 ± 1.2 nM; in assay [1] (setting [4]), 14 ± 1.2 nM; in assay [1] (setting [5]), 13.7 ± 1.2 nM; in assay [1] (setting [6]), 13.9 ± 1.3 nM. The “Gs coupling (permissive) of agonist/GiPCR” value is on record as “CB65/Gs+” with Gs and Gq proteins (FG1); “CB65/Gs−” with Gs and Gq proteins (FG2); “CB65/Gs−” in the assay on Gs and Gq proteins (FG3).
Turning to `COc1ccc2[nH]cc(CCNC(C)=O)c2c1` [Melatonin, melatonin], the EC50 in assay [1] (setting [3]) is 33.4 ± 8.4 nM; in assay [1] (setting [4]) it was 42.3 ± 9.4 nM; in assay [1] (setting [5]), 48.7 ± 6.4 nM; in assay [1] (setting [6]) it was 45.8 ± 5.3 nM.
On to Lysophosphatidic acid [LPA], for which the concentration for a half-maximal effect (EC50) in assay [1] (read-out: Control EC50, impedance response, osteoblasts from control subjects) is 8.52 ± 1.5 nM; in assay [1] (read-out: FG1 EC50, impedance response, osteoblasts from AIS patients of group FG1), 8.78 ± 0.6 nM; in assay [1] (read-out: FG2 EC50, impedance response, osteoblasts from AIS patients of group FG2) it was 8.54 ± 1.4 nM; in assay [1] (read-out: FG3 EC50, impedance response, osteoblasts from AIS patients of group FG3) it was 8.59 ± 1.2 nM. Further, the “Gs coupling (permissive) of agonist/GiPCR” value in the assay on Gs and Gq proteins (FG1) is given as “LPA/Gs+”. Also, the “Gq coupling (permissive) of agonist/GiPCR” value with Gs and Gq proteins (FG2) is recorded as “LPA/Gq+”; in the assay with Gs and Gq proteins (FG3) it was “LPA/Gq+”.
For the molecule `Brc1c(NC2=NCCN2)ccc2nccnc12` [UK14304, 5-bromo-N-(4,5-dihydro-1H-imidazol-2-yl)-6-quinoxalinamine], the EC50 in assay [1] (setting [3]) came out at 16.5 ± 2.3 nM; in assay [1] (setting [4]), 18.5 ± 4.2 nM; in assay [1] (setting [5]), 16.6 ± 1.6 nM; in assay [1] (setting [6]) it was 17.8 ± 1.3 nM.
Take `CCNC(=O)[C@H]1O[C@@H](n2cnc3c(N)ncnc32)[C@H](O)[C@@H]1O` [NECA, 1-(6-Amino-9H-purin-9-yl)-1-deoxy-N-ethyl-β-D-ribofuranuronamide]: the EC50 in assay [1] (setting [3]) came to 20.9 ± 2.2 nM; in assay [1] (setting [4]), 20.9 ± 1.7 nM; in assay [1] (setting [5]), 20.8 ± 1.2 nM; in assay [1] (setting [6]) it was 22.2 ± 2.2 nM.
